For 31 molecules, IC50 results are on record in patent publication US20240083857A1, “2-Methyl-Quinazolines” (Bayer Pharma Aktiengesellschaft, priority 2017, published 2024).

The target in assay [1] is human SOS1 (nucleotide exchange of K-Ras^G12C) (Homo sapiens, UniProt Q07889). In words: Biochemical assay 2: K-Ras^G12C activation assay by hSOS1 at high GTP concentration (HTRF). The settings on record: high GTP; read-out: Assay 2 (KRAS-Activation by SOS high GTP) activity expressed as IC50. On the technique in general: In TR-FRET formats the signal depends on donor and acceptor labels being close together.

In assay [2] the target is Epidermal Growth Factor Receptor (EGFR) (Homo sapiens (Human), UniProt P00533). In words: EGFR kinase assay (TR-FRET). The class given is biochemical. The settings on record: read-out: EGFR kinase inhibition IC50. An outline of the steps: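 EGFR purified from A431 cells was preincubated with compound 15 min at 22° C in pH 7.0 Hepes buffer with MgCl2, MnCl2 and vanadate before reaction with a biotinylated peptide. After EDTA stop, phosphopeptide was detected by TR-FRET (anti-phosphotyrosine Tb-cryptate, streptavidin-XL665) as the 665/620 nm emission ratio.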

Like-named read-outs stand apart in the source and are kept apart here. A value given as a limit tells only on which side of the number the result lay.

Epidermal Growth Factor Receptor (EGFR), sequence (P00533 25-1210): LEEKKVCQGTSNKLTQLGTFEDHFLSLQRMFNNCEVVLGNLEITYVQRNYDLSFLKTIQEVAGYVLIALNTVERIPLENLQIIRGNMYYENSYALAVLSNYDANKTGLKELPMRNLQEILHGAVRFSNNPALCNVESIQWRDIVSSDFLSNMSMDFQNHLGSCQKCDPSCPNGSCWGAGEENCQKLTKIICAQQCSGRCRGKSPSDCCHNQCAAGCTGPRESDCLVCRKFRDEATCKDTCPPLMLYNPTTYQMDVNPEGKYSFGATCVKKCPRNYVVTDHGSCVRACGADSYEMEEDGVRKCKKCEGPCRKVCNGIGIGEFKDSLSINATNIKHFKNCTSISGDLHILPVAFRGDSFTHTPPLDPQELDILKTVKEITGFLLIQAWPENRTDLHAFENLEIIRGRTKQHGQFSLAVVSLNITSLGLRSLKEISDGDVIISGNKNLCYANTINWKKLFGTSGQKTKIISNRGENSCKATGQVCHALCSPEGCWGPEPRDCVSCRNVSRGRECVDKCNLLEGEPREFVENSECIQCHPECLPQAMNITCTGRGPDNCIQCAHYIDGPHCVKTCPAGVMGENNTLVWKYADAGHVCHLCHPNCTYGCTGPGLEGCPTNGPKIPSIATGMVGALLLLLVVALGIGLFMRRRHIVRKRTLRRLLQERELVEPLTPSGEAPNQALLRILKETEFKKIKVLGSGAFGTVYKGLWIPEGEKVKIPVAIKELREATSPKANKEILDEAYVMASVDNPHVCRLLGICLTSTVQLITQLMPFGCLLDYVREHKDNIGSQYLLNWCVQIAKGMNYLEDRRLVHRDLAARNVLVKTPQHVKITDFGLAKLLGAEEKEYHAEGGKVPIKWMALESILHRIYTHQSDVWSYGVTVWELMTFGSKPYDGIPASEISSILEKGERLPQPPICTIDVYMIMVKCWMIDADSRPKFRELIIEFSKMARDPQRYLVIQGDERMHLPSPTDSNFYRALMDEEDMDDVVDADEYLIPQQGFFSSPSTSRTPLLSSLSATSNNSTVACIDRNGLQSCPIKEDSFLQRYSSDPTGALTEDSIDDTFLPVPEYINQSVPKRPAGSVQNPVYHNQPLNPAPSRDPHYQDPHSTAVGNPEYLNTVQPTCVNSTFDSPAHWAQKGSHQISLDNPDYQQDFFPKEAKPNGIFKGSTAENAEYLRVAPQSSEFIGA

What is called IC50 is the point on the concentration scale where inhibition reaches its midpoint. `COc1cc2nc(C)nc(NC(C)c3cccc4cccnc34)c2cc1OC` (single isomer, unassigned; enantiomer 1) [Example 230, 6,7-dimethoxy-2-methyl-N-[1-(quinolin-8-yl)ethyl]quinazolin-4-amine, Enantiomer 1]: the results for the IC50 in assay [1] and in assay [2] (values given in μM) were 6.69 µM and greater than 20 µM, respectively.

`COc1cc2nc(C)nc(NC(C)c3cccc4sccc34)c2cc1OC` (centres unmarked) [Example 205, N-[1-(1-benzothiophen-4-yl)ethyl]-6,7-dimethoxy-2-methylquinazolin-4-amine]: the IC50 in assay [1] is 0.0872 µM; in assay [2] (values given in μM), greater than 20 µM.

With `COc1cc2nc(C)nc(NC(C)c3ccc(-c4ccccc4CO)s3)c2cc1OC` (centres unmarked) [Example 244, [2-(5-{1-[(6,7-dimethoxy-2-methylquinazolin-4-yl)amino]ethyl}thiophen-2-yl)phenyl]methanol], the IC50 in assay [1] is 0.401 µM; in assay [2] (values given in μM), greater than 20 µM.

`COc1cc2nc(C)nc(NC(C)c3ccc(-c4ccc(F)cc4CN)s3)c2cc1OC` (centres unmarked) [Example 234, N-[1-{5-[2-(aminomethyl)-4-fluorophenyl]thiophen-2-yl}ethyl]-6,7-dimethoxy-2-methylquinazolin-4-amine]: the results for the IC50 in assay [1] and in assay [2] (values given in μM) were 0.0654 µM and greater than 20 µM, respectively.

Consider `COc1cc2nc(C)nc(N[C@H](C)c3ccc(Br)cc3)c2cc1OC` [Example 187, N-[(1R)-1-(4-bromophenyl)ethyl]-6,7-dimethoxy-2-methylquinazolin-4-amine], for which the IC50 in assay [1] was 0.562 µM; in assay [2] (values given in μM) it was greater than 20 µM.

As to `COc1cc2nc(C)nc(NC(C)c3csc(-c4cnc5n4CCC5)c3)c2cc1OC` (centres unmarked) [Example 253, N-{1-[5-(6,7-dihydro-5H-pyrrolo[1,2-a]imidazol-3-yl)thiophen-3-yl]ethyl}-6,7-dimethoxy-2-methylquinazolin-4-amine], the IC50 in assay [1] is 2.33 µM; in assay [2] (values given in μM), greater than 20 µM.

For `COc1cc2nc(C)nc(NC(C)c3ccc(-c4cnc5n4CCC5)s3)c2cc1OC` (centres unmarked) [Example 219, N-{1-[5-(6,7-dihydro-5H-pyrrolo[1,2-a]imidazol-3-yl)thiophen-2-yl]ethyl}-6,7-dimethoxy-2-methylquinazolin-4-amine], the results for the IC50 in assay [1] and in assay [2] (values given in μM) were 0.57 µM and greater than 20 µM, respectively.

As to `COc1cc2nc(C)nc(NC(C)c3csc(-c4ccc(F)cc4CN)c3)c2cc1OC` (centres unmarked) [Example 255, N-[1-{5-[2-(aminomethyl)-4-fluorophenyl]thiophen-3-yl}ethyl]-6,7-dimethoxy-2-methylquinazolin-4-amine], the IC50 in assay [1] was 0.317 µM; in assay [2] (values given in μM), greater than 20 µM.

Take `COc1cc2nc(C)nc(N[C@H](C)c3ccc(C4CC4)cc3)c2cc1OC` [Example 197, N-[(1R)-1-(4-cyclopropylphenyl)ethyl]-6,7-dimethoxy-2-methylquinazolin-4-amine]: the IC50 in assay [1] is 0.303 µM; in assay [2] (values given in μM), greater than 20 µM.

Consider `COc1cc2nc(C)nc(N[C@H](C)c3ccc(C(N)=O)cc3)c2cc1OC` [Example 192, 4-{(1R)-1-[(6,7-dimethoxy-2-methylquinazolin-4-yl)amino]ethyl}benzamide], for which the half-maximal inhibitory concentration (IC50) in assay [1] was 4.09 µM; in assay [2] (values given in μM), greater than 20 µM.

In the case of `C=Cc1ccccc1-c1ccc(C(C)Nc2nc(C)nc3cc(OC)c(OC)cc23)s1` (centres unmarked) [Example 248, N-{1-[5-(2-ethenylphenyl)thiophen-2-yl]ethyl}-6,7-dimethoxy-2-methylquinazolin-4-amine], the IC50 in assay [1] was 8.08 µM; in assay [2] (values given in μM) it was greater than 20 µM.

Take `COc1cc2nc(C)nc(N[C@H](C)c3cccc(C(N)=O)c3)c2cc1OC` [Example 199, 3-{(1R)-1-[(6,7-dimethoxy-2-methylquinazolin-4-yl)amino]ethyl}benzamide]: the results for the IC50 in assay [1] and in assay [2] (values given in μM) were 1.42 µM and greater than 20 µM, respectively.

In the case of `COc1cc2nc(C)nc(N[C@H](C)c3cccc(Br)c3)c2cc1OC` [Example 191, N-[(1R)-1-(3-bromophenyl)ethyl]-6,7-dimethoxy-2-methylquinazolin-4-amine], the results for the IC50 in assay [1] and in assay [2] (values given in μM) were 0.245 µM and greater than 20 µM, respectively.

For the molecule `COc1cc2nc(C)nc(NC(C)c3ccc(-c4cnn(C5CCCC5)c4)s3)c2cc1OC` (centres unmarked) [Example 221, N-{1-[5-(1-cyclopentyl-1H-pyrazol-4-yl)thiophen-2-yl]ethyl}-6,7-dimethoxy-2-methylquinazolin-4-amine], the results for the IC50 in assay [1] and in assay [2] (values given in μM) were 4.65 µM and greater than 20 µM, respectively.

On to `COc1cc2nc(C)nc(NC(C)c3csc(-c4cnn(CCO)c4)c3)c2cc1OC` (centres unmarked) [Example 251, 2-[4-(4-{1-[(6,7-dimethoxy-2-methylquinazolin-4-yl)amino]ethyl}thiophen-2-yl)-1H-pyrazol-1-yl]ethanol], for which the IC50 in assay [1] is 5.84 µM; in assay [2] (values given in μM) it was greater than 20 µM.

For the molecule `COc1cc2nc(C)nc(N[C@H](C)c3cccc(C)c3)c2cc1OC` [Example 190, 6,7-dimethoxy-2-methyl-N-[(1R)-1-(3-methylphenyl)ethyl]quinazolin-4-amine], the IC50 in assay [1] is 0.153 µM; in assay [2] (values given in μM), greater than 20 µM.

With `COc1cc2nc(C)nc(N[C@H](C)c3cccc(-c4cnn(CCN5CCCC5)c4)c3)c2cc1OC` [Example 257, 6,7-dimethoxy-2-methyl-N-[(1R)-1-(3-{1-[2-(pyrrolidin-1-yl)ethyl]-1H-pyrazol-4-yl}phenyl)ethyl]quinazolin-4-amine], the results for the 50% inhibitory concentration (IC50) in assay [1] and in assay [2] (values given in μM) were 0.754 µM and greater than 20 µM, respectively.

`COc1cc2nc(C)nc(NC(C)c3ccc(-c4ccccc4CN)s3)c2cc1OC` (centres unmarked) [Example 252, N-[1-{5-[2-(aminomethyl)phenyl]thiophen-2-yl}ethyl]-6,7-dimethoxy-2-methylquinazolin-4-amine]: the results for the IC50 in assay [1] and in assay [2] (values given in μM) were 0.0741 µM and greater than 20 µM, respectively.

`COc1cc2nc(C)nc(N[C@H](C)c3cccc(-c4ccccc4)c3)c2cc1OC` [Example 193, N-[(1R)-1-(biphenyl-3-yl)ethyl]-6,7-dimethoxy-2-methylquinazolin-4-amine]: the IC50 was 0.405 µM in assay [1] and greater than 20 µM in assay [2] (values given in μM).

With `CCOc1ccccc1-c1ccc(C(C)Nc2nc(C)nc3cc(OC)c(OC)cc23)s1` (centres unmarked) [Example 232, N-{1-[5-(2-ethoxyphenyl)thiophen-2-yl]ethyl}-6,7-dimethoxy-2-methylquinazolin-4-amine], the results for the IC50 in assay [1] and in assay [2] (values given in μM) were 9.29 µM and greater than 20 µM, respectively.

With `COc1cc2nc(C)nc(NC(C)c3cccs3)c2cc1OC` (centres unmarked) [Example 207, 6,7-dimethoxy-2-methyl-N-[1-(thiophen-2-yl)ethyl]quinazolin-4-amine], the results for the IC50 in assay [1] and in assay [2] (values given in μM) were 2.27 µM and greater than 20 µM, respectively.

Turning to `COc1cc2nc(C)nc(NC(C)c3ccc4nsnc4c3)c2cc1OC` (centres unmarked) [Example 229, N-[1-(2,1,3-benzothiadiazol-5-yl)ethyl]-6,7-dimethoxy-2-methylquinazolin-4-amine], the results for the IC50 in assay [1] and in assay [2] (values given in μM) were 7.82 µM and greater than 20 µM, respectively.

As to `COc1cc2nc(C)nc(N[C@H](C)c3ccc(C)cc3)c2cc1OC` [Example 195, 6,7-dimethoxy-2-methyl-N-[(1R)-1-(4-methylphenyl)ethyl]quinazolin-4-amine], the IC50 in assay [1] is 0.635 µM; in assay [2] (values given in μM), greater than 20 µM.

For `COc1cc2nc(C)nc(N[C@H](C)c3cccc(-c4cnn(CCO)c4)c3)c2cc1OC` [Example 256, 2-[4-(3-{(1R)-1-[(6,7-dimethoxy-2-methylquinazolin-4-yl)amino]ethyl}phenyl)-1H-pyrazol-1-yl]ethanol], the IC50 was 0.828 µM in assay [1] and greater than 20 µM in assay [2] (values given in μM).

Consider `COc1cc2nc(C)nc(N[C@H](C)c3cccc(Cl)c3)c2cc1OC` [Example 2, N-[(1R)-1-(3-chlorophenyl)ethyl]-6,7-dimethoxy-2-methylquinazolin-4-amine], for which the 50% inhibitory concentration (IC50) in assay [1] stood at 0.207 µM; in assay [2] (unit inferred), 16.3 µM.

As to `COc1cc2nc(C)nc(N[C@H](C)c3cccc(C4CC4)c3)c2cc1OC` [Example 204, N-[(1R)-1-(3-cyclopropylphenyl)ethyl]-6,7-dimethoxy-2-methylquinazolin-4-amine], the IC50 in assay [1] was 0.265 µM; in assay [2] (values given in μM) it was greater than 20 µM.

`COc1cc2nc(C)nc(N[C@H](C)c3ccc(-c4ccccc4)cc3)c2cc1OC` [Example 196, N-[(1R)-1-(biphenyl-4-yl)ethyl]-6,7-dimethoxy-2-methylquinazolin-4-amine]: the results for the IC50 in assay [1] and in assay [2] (values given in μM) were 1.09 µM and greater than 20 µM, respectively.

Regarding `COc1cc2nc(C)nc(NC(C)c3ccc(-c4cccc5[nH]ncc45)s3)c2cc1OC` (centres unmarked) [Example 247, N-{1-[5-(1H-indazol-4-yl)thiophen-2-yl]ethyl}-6,7-dimethoxy-2-methylquinazolin-4-amine], the figures for the IC50 in assay [1] and in assay [2] (values given in μM) were 0.867 µM and greater than 20 µM, respectively.

For the molecule `COc1cc2nc(C)nc(NC(C)c3ccc(-c4ccccc4CN4CCC[C@H]4CN(C)C)s3)c2cc1OC` (stereo partly drawn) [Example 185, N-[1-{5-[2-({(2S)-[(dimethylamino)methyl]pyrrolidin-1-yl}methyl)phenyl]thiophen-2-yl}ethyl]-6,7-dimethoxy-2-methylquinazolin-4-amine], the IC50 in assay [1] is 0.344 µM; in assay [2] (values given in μM) it was greater than 20 µM.

In the case of `COc1cc2nc(C)nc(NC(C)c3csc(Br)c3)c2cc1OC` (centres unmarked) [Example 239, N-[1-(5-bromothiophen-3-yl)ethyl]-6,7-dimethoxy-2-methylquinazolin-4-amine], the IC50 was 3.83 µM in assay [1] and greater than 20 µM in assay [2] (values given in μM).

Turning to `COc1cc2nc(C)nc(NC(C)c3csc(-c4cnn(CCN5CCCC5)c4)c3)c2cc1OC` (centres unmarked) [Example 254, 6,7-dimethoxy-2-methyl-N-[1-(5-{1-[2-(pyrrolidin-1-yl)ethyl]-1H-pyrazol-4-yl}thiophen-3-yl)ethyl]quinazolin-4-amine], the results for the IC50 in assay [1] and in assay [2] (values given in μM) were 1.59 µM and greater than 20 µM, respectively.
